In patent US9629828B2, “Methods of treating traveler's diarrhea and hepatic encephalopathy” (priority 2008, dated 2017):
Entries after “also recorded” stand apart in the source; their conditions may differ. Where two headings read alike, the source gives them in different places. Marks after values point to notes of the source that are not given here.

Assays:
[1] = test system: subjects in remission from hepatic encephalopathy (HE); test: First study: asterixis grade (time to any increase, change from baseline); type: in vivo, human; conditions: for Probability of no increase in asterixis grade: Kaplan-Meier; for Probability of no increase in asterixis grade / Cumulative number of events (increase in asterixis grade) / Event probability (increase in asterixis grade during the treatment interval) / Number of events (increase in asterixis grade): ITT, N = 140
Method: Asterixis (flapping tremor) was determined with the subject holding both arms and forearms extended with wrists dorsiflexed and fingers open for ≧30 seconds. Asterixis was measured on a continuum of 5 grades, e.g., grades 0 and 4=no abnormal movement vs. almost continuous flapping motions, respectively as shown below:
Efficacy in regard to asterixis grade was measured as time to any increase from baseline in asterixis grade.
FIG. 12 illustrates time to any increase from baseline in asterixis grade by treatment group in the ITT population in the first study. Table 21 presents estimates of the proportions of subjects who had any increase in asterixis grade over the course of the Treatment Period and results of statistical analyses. Subjects who discontinued prior to experiencing an increase in asterixis grade and prior to completion of the 6-month treatment period were censored at the time of discontinuation.

[2] = test system: subjects with a history of recurrent, overt, episodic HE; test: Second study: changes in Conn scores and asterixis grades; type: in vivo, human
Text: Normalizing for subject exposure, this represents a hospitalization rate of 0.60 event/PEY. A total of 59 were hospitalized due HE episodes (e.g., HE-caused). Normalizing for subject exposure, this represents an HE-caused hospitalization rate of 0.29 event/PEY. […] All subjects were capable of worsening over time, and 24/266 subjects (9.0%) did so by 1 or 2 grades.
The last visit for the second study is the last visit recorded for the interim analysis.
A total of 65.5% of subjects (220 of 337) had no change in Conn score and 21.1% (71 of 337) had improvements in Conn score from baseline to last visit. […] No change from baseline in asterixis grade was reported for 75.2% of subjects (252 of 337), and 17.3% had improvements.

[3] = test system: subjects with a history of recurrent, overt, episodic HE; conditions: human, in vivo
Text: At the time of this interim analysis, TEAEs were reported in 230 subjects (86.5%). The most common TEAEs (e.g., in ≧10% of total subjects) experienced by subjects were the following: peripheral edema (15.8%); urinary tract infection and nausea (12.8% each); and abdominal pain and ascites (10.5% each).
Treatment-emergent SAEs were experienced by 47.4% of subjects.

[4] = test system: adult subjects with travelers' diarrhea; test: Travelers' diarrhea Study 1: clinical response (TLUS, clinical cure); type: in vivo, human
Method: One study was conducted at clinical sites in Mexico, Guatemala, and Kenya (Study 1). The other study was conducted in Mexico, Guatemala, Peru, and India (Study 2). Stool specimens were collected before treatment and 1 to 3 days following the end of treatment to identify enteric pathogens. The predominant pathogen in both studies was Escherichia coli.
The clinical efficacy of rifaximin was assessed by the time to return to normal, formed stools and resolution of symptoms. The primary efficacy endpoint was time to last unformed stool (TLUS) which was defined as the time to the last unformed stool passed, after which clinical cure was declared. […] More patients treated with rifaximin were classified as clinical cures than were those in the placebo group.

rabbits = conditions: rabbit, in vivo
Text: (§1) These effects include cleft palate, agnatha, jaw shortening, hemorrhage, eye partially open, small eyes, brachygnathia, incomplete ossification, and increased thoracolumbar vertebrae.

rats = conditions: rat, in vivo
Text: as §1

[5] = test system: Gram-positive and Gram-negative bacteria, such as Escherichia coli; test: In vitro antibacterial activity / susceptibility (NCCLS agar dilution M7-A6); type: cell-based
Method: In vitro susceptibility testing was performed according to the National Committee for Clinical Laboratory Standards (NCCLS) agar dilution method M7-A612.
Methods for dilution antimicrobial susceptibility tests for bacteria that grow aerobically. National Committee for Clinical Laboratory Standards, Sixth Edition, Wayne Pa. Approved Standard NCCLS Document M7-A6 Jan.

[6] = treatment interval 0 to <28 days
[7] = treatment interval 28 to <56 days
[8] = treatment interval 56 to <84 days
[9] = treatment interval 84 to <140 days
[10] = treatment interval 140 to <168 days
[11] = all rifaximin experience, 337 subjects

Q: For CO[C@H]1/C=C/O[C@@]2(C)Oc3c(C)c(O)c4c(O)c(c5c(nc6cc(C)ccn65)c4c3C2=O)NC(=O)/C(C)=C\C=C\[C@H](C)[C@H](O)[C@@H](C)[C@@H](O)[C@@H](C)[C@H](OC(C)=O)[C@@H]1C [rifaximin, (2S,16Z,18E,20S,21S,22R,23R,24R,25 S,26S,27S,28E)-5,6,21,23,25-pentahydroxy-27-methoxy-2,4,11,16,20,22,24,26-octamethyl-2,7-(epoxypentadeca-[1,11,13]trienimino)benzofuro[4,5-e]pyrido[1,2-á]-benzimidazole-1,15(2H)-dione,25-acetate], which “Number of subjects in each level of change from baseline in asterixis grade” value ([1]; Baseline to EOT, level: r10 −2, r11 −1, r12 0, r13 1, r14 2, r15 3, r16 4) is on record?
A: Its value is 18 (12.9%) n (%).

Q: What about the “Probability of no increase in asterixis grade” value (“Probability of no increase” for short) [1, 6] of the same compound?
A: The value was 1.0000.

Q: And the “Probability of no increase” value [1, 7]?
A: Its value is 0.9048.

Q: What about the “Probability of no increase” value [1, 8] of the same compound?
A: Its value is 0.8499.

Q: What about the “Probability of no increase” value [1, 9] of the same compound?
A: The value was 0.7910.

Q: And the “Probability of no increase” value [1, 10]?
A: Its value is 0.7637.

Q: And the “Probability of no increase” value ([1]; treatment interval ≧168 days)?
A: Its value is 0.7534.

Q: And the “subjects with changes in asterixis grade of 1, 2, 3, or 4” value ([1]; baseline to end of treatment)?
A: The value was 11.6%.

Q: What about the “subjects with changes in asterixis grade of −2, −1, and 0” value ([1]; baseline to end of treatment) of the same compound?
A: The value was 88.5%.

Q: What about the “prevention of worsening of asterixis grade, times versus placebo” value ([1]; in vivo) of the same compound?
A: The value was 1.92 times.

Q: And the “reduction in risk of worsening of asterixis” value ([1]; in vivo)?
A: The value was 35%.

Q: And the “subjects with increases in asterixis grade” value ([1]; in vivo)?
A: Its value is 32 of 140.

Q: And the “time to first increase in Asterixis grade vs placebo (FIG. 5)” value ([1]; in vivo)?
A: The value was “increased time to the first increase in Asterixis grade”.

Q: And the “Cumulative number of events (increase in asterixis grade)” value [1, 6]?
A: Its value is 13.

Q: And the “Event probability (increase in asterixis grade during the treatment interval)” value [1, 6]?
A: The value was 0.10.

Q: And the “Number of events (increase in asterixis grade)” value [1, 6]?
A: The value was 13.

Q: What about the “Cumulative number of events (increase in asterixis grade)” value [1, 7] of the same compound?
A: Its value is 20.

Q: And the “Event probability (increase in asterixis grade during the treatment interval)” value [1, 7]?
A: The value was 0.06.

Q: What about the “Number of events (increase in asterixis grade)” value [1, 7] of the same compound?
A: Its value is 7.

Q: And the “Cumulative number of events (increase in asterixis grade)” value [1, 8]?
A: The value was 27.

Q: And the “Event probability (increase in asterixis grade during the treatment interval)” value [1, 8]?
A: The value was 0.07.

Q: What about the “Number of events (increase in asterixis grade)” value [1, 8] of the same compound?
A: The value was 7.

Q: What about the “Cumulative number of events (increase in asterixis grade)” value [1, 9] of the same compound?
A: Its value is 30.

Q: What about the “Event probability (increase in asterixis grade during the treatment interval)” value [1, 9] of the same compound?
A: The value was 0.03.

Q: And the “Number of events (increase in asterixis grade)” value [1, 9]?
A: Its value is 3.

Q: What about the “Cumulative number of events (increase in asterixis grade)” value [1, 10] of the same compound?
A: The value was 31.

Q: And the “Event probability (increase in asterixis grade during the treatment interval)” value [1, 10]?
A: The value was 0.01.

Q: What about the “Number of events (increase in asterixis grade)” value [1, 10] of the same compound?
A: Its value is 1.

Q: What about the “Cumulative number of events (increase in asterixis grade)” value ([1]; treatment interval ≧168 days) of the same compound?
A: Its value is 32.

Q: What about the “Event probability (increase in asterixis grade during the treatment interval)” value ([1]; treatment interval ≧168 days) of the same compound?
A: The value was 0.03.

Q: What about the “Number of events (increase in asterixis grade)” value ([1]; treatment interval ≧168 days) of the same compound?
A: The value was 1.

Q: What about the “subjects improved among those entering with asterixis scores of 1, 2, or 3” value ([2]; 67 subjects) of the same compound?
A: The value was 64.2%.

Q: What about the “subjects with 1-grade asterixis improvement” value ([2]; 67 subjects) of the same compound?
A: The value was 50.7%.

Q: And the “subjects with 2-grade asterixis improvement” value ([2]; 67 subjects)?
A: Its value is 6.0%.

Q: And the “subjects with 3-grade asterixis improvement” value ([2]; 67 subjects)?
A: Its value is 7.5%.

Q: And the “subjects with worsening asterixis, continuing rifaximin” value ([2]; 70 subjects)?
A: Its value is 8.6%.

Q: And the “subjects improved among those entering with Conn scores of 1, 2, or 3” value ([2]; 84 subjects)?
A: The value was 64.3%.

Q: What about the “subjects with 1-grade Conn improvement” value ([2]; 84 subjects) of the same compound?
A: The value was 56.0%.

Q: And the “subjects with 2-grade Conn improvement” value ([2]; 84 subjects)?
A: The value was 8.3%.

Q: And the “subjects improved in asterixis grade among those entering with grade ≧1” value ([2]; 99 subjects)?
A: The value was 58.6%.

Q: What about the “subjects improved to Conn score 0 among those entering with Conn ≧1” value ([2]; 118 subjects) of the same compound?
A: Its value is 62.2%.

Q: And the “subjects with worsening asterixis, new rifaximin” value ([2]; 196 subjects)?
A: The value was 6.1%.

Q: What about the “subjects with Conn worsening by 1 or 2 grades” value ([2]; 266 subjects) of the same compound?
A: Its value is 9.0%.

Q: And the “subjects with improvements in Conn scores at last visit” value ([2]; 266 subjects)?
A: Its value is 20.3%.

Q: And the “subjects with improvements in asterixis scores” value ([2]; 266 subjects)?
A: The value was 16.2%.

Q: What about the “subjects with mental status maintained or improved” value ([2]; 266 subjects) of the same compound?
A: Its value is 91%.

Q: And the “subjects with neuromotor symptoms maintained” value ([2]; 266 subjects)?
A: The value was 83.3%.

Q: What about the “subjects with no change in Conn score at last visit” value ([2]; 266 subjects) of the same compound?
A: The value was 70.7%.

Q: What about the “subjects with no change in asterixis at last visit” value ([2]; 266 subjects) of the same compound?
A: The value was 77.1%.

Q: What about the “subjects with improvements in asterixis grade” value ([2]; all rifaximin experience) of the same compound?
A: Its value is 17.3%.

Q: And the “subjects with maintenance or improvements in asterixis grades” value ([2]; all rifaximin experience)?
A: The value was over 90%.

Q: What about the “subjects with improvements in Conn score” value [2, 11] of the same compound?
A: The value was 21.1%.

Q: What about the “subjects with no change in Conn score” value [2, 11] of the same compound?
A: Its value is 65.5%.

Q: And the “subjects with no change in asterixis grade” value [2, 11]?
A: The value was 75.2%.

Q: What about the “subjects with maintenance or improvement in Conn scores” value ([2]; all rifaximin experience, up to 840 days) of the same compound?
A: Its value is over 85%.

Q: And the TEAE abdominal pain [3]?
A: The TEAE abdominal pain was 10.5%.

Q: And the TEAE ascites [3]?
A: Its TEAE ascites is 10.5%.

Q: What about the TEAE nausea [3] of the same compound?
A: The TEAE nausea was 12.8%.

Q: What about the TEAE peripheral edema [3] of the same compound?
A: Its TEAE peripheral edema is 15.8%.

Q: And the “TEAE urinary tract infection” value [3]?
A: Its value is 12.8%.

Q: What about the “subjects with HE counted for the safety analyses” value [3] of the same compound?
A: Its value is 21.4%.

Q: And the “subjects with TEAEs” value [3]?
A: The value was 86.5%.

Q: What about the “subjects with at least 1 severe TEAE” value [3] of the same compound?
A: Its value is 40.2%.

Q: What about the “subjects with treatment-emergent SAEs” value [3] of the same compound?
A: The value was 47.4%.

Q: What about the “Median TLUS” value ([4]; 200 mg TID 3 days, ITT n = 125) of the same compound?
A: Its value is 32.5 h.

Q: And the “Difference in rates of clinical cure vs placebo” value ([4]; ITT)?
A: The value was 18.7^b.

Q: What about the Clinical cure ([4]; ITT n = 125) of the same compound?
A: Its Clinical cure is 99 (79.2) n (%).

Q: And the “fertility / harm to the fetus” value (rabbits)?
A: The value was “no evidence of impaired fertility or harm to the fetus”.

Q: And the “fertility / harm to the fetus” value (rats)?
A: The value was “no evidence of impaired fertility or harm to the fetus”.

Q: And the “in vitro antibacterial activity” value [5]?
A: Its value is “active”.

Q: And the “in vitro antibacterial activity” value ([5]; listed as Rifaximin)?
A: The value was “in vitro antimicrobial activity; also recorded: broad spectrum of in vitro antibacterial activity”.
